The subject of data set [1] is activity-regulated Gln/MeAIB transport (SNAT activity) in hippocampal neurons. The data set is described as follows: Activity-regulated (spontaneous, 4-AP- or K+-stimulated) [14C]-MeAIB transport in primary hippocampal neurons. The data set is classed as cell-based, rat. Details: block of transport activity: dose or concentration left out as unconfirmed.
The next data set deals with KCa channels. As to conditions: cited from earlier work.
The nature of data set [2]: Tolerability observation after i.p. dosing of SKA-41. Conditions: for tolerability: 10 mg/kg i.p., rats.
Data set [3] is described as follows: SKA-41 concentrations in plasma and brain by LC/MS after i.p. injection. The data set is classed as in vivo. As to conditions: rat; for concentration at 1 h: male, intraperitoneal, 10 mg/kg i.p., n=3 rats. As to the method:
Twelve week-old male Sprague-Dawley rats were purchased from Charles River Laboratories (Wilmington, Mass.) and housed in microisolator cages with rodent chow and autoclaved water ad libitum. All experiments were in accordance with National Institutes of Health guidelines and approved by the University of California, Davis Institutional Animal Care and Use Committee.
SKA-41 is dissolved in Miglyol 812 neutral oil (caprylic/capric triglyceride; Trade name Neobee M5, Spectrum Chemicals, Gardena, Calif., USA) at 1 mg/mL and injected intraperitoneally at 10 mg/kg. After 1 hour, rats (n=3) are subjected to cardiac puncture under deep isoflurane anesthesia and then sacrificed before removing the brain. Blood is collected into EDTA blood sample collection tubes. Plasma is separated by centrifugation and samples stored at −80° C. pending analysis.
Commercial SPE cartridges (Hypersep C18, 100 mg, 1 mL) are purchased from Thermo Scientific (Houston, Tex., U.S.A). Before the extraction, cartridges are conditioned with acetonitrile, 2×1 mL, followed by water 2×1 mL. After loading the SPE cartridges with plasma samples, they are washed with 2×1 mL of 20% acetonitrile in water followed by elution with a 2×1 mL of acetonitrile. Elute fractions are collected and evaporated to dryness. The residues are reconstituted to solution using appropriate volume of acetonitrile and used for LC-MS analysis.
Brain samples are treated as following: 4.0 mL of acetonitrile is added to 200 mg of tissue sample and homogenized thoroughly using a T25 digital ULTRA-TURRAX® homogenizer (IKA® Works Inc., NC, USA). The homogenized samples are centrifuged for 10 min at 4000 rpm, the supernatant is separated and evaporated under a constant air flow as described above. The residues are reconstituted using appropriate volume of acetonitrile. The reconstituted material is loaded onto the preconditioned SPE cartridges it is then eluted with 2 mL of acetonitrile. Load and elute fractions are collected and evaporated to dryness. The residues are reconstituted to solution with 200 μL acetonitrile and used for LC-MS analysis. […]
Using Heated electrospray ionization source (HESI II) in positive ion mode, capillary temperature 300° C., vaporizer temperature: 250° C., spray voltage 3000 V, sheath gas pressure (N2) 30 units, auxiliary gas pressure (N2) 5 units, ion sweep gas pressure (N2) 1 unit, SKA-41 was analyzed by the selective reaction monitoring (SRM) transition of its molecular ion peak 261.0 (M+1)^+ into 175.0 and 133.0 m/z. An 8-point calibration curve spanning a concentration range from 50 nM to 10 μM range was developed for quantification.

The nature of data set [4]: Max. solubility (Table 1). The data set is classed as physicochemical.

In brackets after ≈: the same amount, converted by molar mass. Entries after “also recorded” stand apart in the source; their conditions may differ. Like-named read-outs stand apart in the source and are kept apart here.

In general, solubility refers to the dissolved amount per volume that the medium holds.

With `Nc1nc(-c2ccc(OC(F)(F)F)cc2)cs1` [SKA-41, 4-(4-(Trifluoromethoxy)phenyl)thiazol-2-amine], in data set [1], the “block of transport activity” value was about 90%. For the same molecule, in data set [1] (Rattus norvegicus, Hippocampal neuron, at 10 μM, read-out: block / inhibition of transport activity), the inhibition at 10 µM is about 90%. Further, the IC50 in data set [1] (Rattus norvegicus, Hippocampal neuron, hippocampal neurons in vitro, 14C-MeAIB 20 μM, read-out: IC50 to inhibit activity-regulated Gln/MeAIB transport) is about 2000 nM. The “Active (annotation beside the compound name: active vs inactive derivatives)” value in data set [1] (Table 1: SKA-41, and active and inactive derivatives) is reported as “SKA-41 Active CAS no. 436151-95-0 (Oakwood Chemical)”. Further, in data set [1] (screens, 10 μM, GABA 2 mM), the “inhibition of spontaneous activity-regulated 14C-MeAIB transport, in words” value was “active; also recorded: blocked spontaneous transport activity; also recorded: inhibited spontaneous transport activity”. The “effect on KCa channels / KCa currents” value in the data set with KCa channels is “no effect”; in the data set with KCa channels (listed as SKA41) it was “no effect; also recorded: inactive”. Moreover, the tolerability entry is given as “well tolerated with no overt toxicity or sedation; also recorded: well tolerated” in data set [2] and “well tolerated with no overt toxicity or sedation” in data set [2] (listed as SKA41). Besides, the untoward effects result in data set [2] (10-30 mg/kg) is on record as “did not observe any untoward effects”. The Kp at 1 h in data set [3] (Sprague-Dawley, brain/plasma, ip, 10 mg/kg i.p. in Miglyol 812, 1 h, 3 male rats, read-out: brain/plasma ratio) is about 7. In addition, the concentration at 1 h was 12.6 µM in data set [3] (Sprague-Dawley, brain, read-out: brain concentration, average) and 1.77 µM in data set [3] (Sprague-Dawley, plasma, read-out: plasma concentration, average). For the same molecule, the “brain penetration (brain/plasma ratio) relative to riluzole” value in data set [3] (in vivo) is listed as “seven times higher”. In data set [4], this molecule displayed a solubility of 50 µM (≈ 13 µg/mL).

These data come from patent publication US11974988B2, “Neuroprotective compositions and methods of using the same” (The Board of Supervisors of Louisiana State Univer …, priority 2018, dated 2024).
